Where no end group is shown, it is not given here.
Assay: Pharmacokinetics studies in mice (i.v. and s.c. bolus, plasma LC–MS/MS)
Format: in vivo
Details: mouse; for AUC / bioavailability: both sexes, C57BL/6 N J, plasma LC–MS/MS; for AUC: tail vein blood over 90 min; for Clearance: s.c.
Protocol: Male and female mice aged between 12–18 weeks old were used for these studies. Gast p59−79, ChgA 435−462a and Sst 25−36 were administered intravenously (i.v.) at 1 mg/kg and subcutaneously (s.c.) at various doses (see Fig. 7A, B and C for details on specific doses for each peptide). Blood samples were collected using EDTA coated microvette tubes (Starsedt, Leicester, UK) from the tail vein at various time points over 90 min. Blood was centrifuged (2000 g, 10 min, 4 °C) and the plasma separated. A 0.1 M sodium citrate (Sigma-Aldrich) buffer (adjusted to pH 3 with citric acid (Sigma-Aldrich)) was added to the plasma at a dilution of 1 in 10 to prevent degradation of Gast p59−79 and Sst 25−36. Plasma was stored -70 °C till extraction.
On the day of analysis, plasma samples were thawed, spiked with a stable isotope labelled version of Gast p59−79, ChgA 435−462a or Sst 25−36, and crashed with 200 μL 80 % ACN. After centrifuging, supernatants were removed and dried under gaseous nitrogen at 40 °C using a SPE Dry evaporator system (Biotage, Upsalla, Sweden). SPE was performed as described previously.
A Xevo TQ-XS triple quadrupole mass spectrometer coupled to H-class Aquity UPLC system enabled high throughput and targeted sample analysis. The column used was a Waters HSS T3 2.1 × 50 mm column at 60 °C and flowing at 350 μL/min. LC–MS/MS analysis was performed using positive ESI with a spray voltage of 3 kV, desolvation temperature 600°C, gas flow rate 1000 L/h and cone voltage of 40 V. Solvent A was 0.1 % FA in water (v/v) and Solvent B was 0.1 % FA in ACN (v/v). Each sample (40 μL per sample) was injected onto the column for 30 s with starting conditions set at 90 % A and 10 % B before the % B was increased to 50 % over the course of 3.5 min. The column was flushed with 90 % B for 1.5 min before initial conditions were restored. Total run time per sample was 5.5 min. Table 1 details the specifications used to quantify Gast p59−79, ChgA 435−462a, Sst 25−36 and their stable isotope labelled versions on a Xevo TQ-XS mass spectrometer.
Raw data files obtained on the Xevo TQ-XS triple quadrupole mass spectrometer were analysed using TargetLynx XS v4.2 software (Waters). Peptides were quantified by integrating the corresponding peaks and normalised to an internal standard if available. For pharmacokinetics studies, the concentration of peptide was estimated by comparing against a calibration line. SAAM II v2.2.1 (The Epsilon Group) with a Rosenbrock integrator and no maximum number of iterations was used to create a model for Gast p59−79 distribution and elimination upon single dose administration to mice.

Substance | AUC (iv, 1 mg/kg) | bioavailability (sc, 1 mg/kg) | AUC (sc, 1 mg/kg) | bioavailability (sc, 3 mg/kg) | AUC (sc, 3 mg/kg) | mass delivery rate required to obtain steady state concentration of 1 nM (estimated from PK data (SAAM II model), osmotic pump infusion) | Clearance (1 mg/kg) | Clearance (3 mg/kg) | AUC (sc, 10 mg/kg) | detection in plasma after s.c. injection (in vivo, sc, 10 mg/kg) | half-life in vivo (in words) (pilot data) | Clearance (10 mg/kg)
AEDQELESLSAIEAELEKVAHQLQALRR-NH2 [ChgA 435−462a] | 362 ng·h/mL | 46.7% | 169 ng·h/mL | 50.4% | 547 ng·h/mL | 0.29 mg/kg/day | 5.92 mL/h/kg | 5.48 mL/h/kg |  |  |  | 
APSDPRLRQFLQ [Sst 25−36] |  |  |  |  |  |  |  |  | 3.3 ng·h/mL | only detectable at low concentrations | very short half-life | 3030 mL/h/kg

— article PMC8121762, “Peptidomics of enteroendocrine cells and characterisation of potential effects of a novel preprogastrin derived-peptide on glucose tolerance in lean mice” (Peptides, 2021)
